Key:
[1] = target: T1, Activin receptor type-1 (Homo sapiens) (UniProt Q04771)
T1 sequence (whole entry): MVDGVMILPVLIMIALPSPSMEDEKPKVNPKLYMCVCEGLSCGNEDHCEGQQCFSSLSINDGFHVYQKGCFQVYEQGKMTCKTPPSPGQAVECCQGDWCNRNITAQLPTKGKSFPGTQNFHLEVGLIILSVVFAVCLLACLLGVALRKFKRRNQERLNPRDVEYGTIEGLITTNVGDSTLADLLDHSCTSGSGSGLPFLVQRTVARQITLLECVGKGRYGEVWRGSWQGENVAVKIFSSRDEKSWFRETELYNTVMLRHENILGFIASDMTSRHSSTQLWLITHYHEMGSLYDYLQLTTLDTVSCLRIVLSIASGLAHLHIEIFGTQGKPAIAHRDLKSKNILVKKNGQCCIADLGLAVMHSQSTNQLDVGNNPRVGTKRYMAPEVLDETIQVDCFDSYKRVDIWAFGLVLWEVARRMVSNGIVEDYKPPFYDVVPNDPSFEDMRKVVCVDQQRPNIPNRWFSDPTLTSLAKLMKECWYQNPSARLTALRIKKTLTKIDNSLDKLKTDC

[2] = target: Bone morphogenetic protein receptor type-1A (Homo sapiens) (UniProt P36894)
[3] = target: Calcium/calmodulin-dependent protein kinase type 1G (Homo sapiens) (UniProt Q96NX5)
Sequence of Calcium/calmodulin-dependent protein kinase type 1G (Homo sapiens) (Q96NX5 whole entry): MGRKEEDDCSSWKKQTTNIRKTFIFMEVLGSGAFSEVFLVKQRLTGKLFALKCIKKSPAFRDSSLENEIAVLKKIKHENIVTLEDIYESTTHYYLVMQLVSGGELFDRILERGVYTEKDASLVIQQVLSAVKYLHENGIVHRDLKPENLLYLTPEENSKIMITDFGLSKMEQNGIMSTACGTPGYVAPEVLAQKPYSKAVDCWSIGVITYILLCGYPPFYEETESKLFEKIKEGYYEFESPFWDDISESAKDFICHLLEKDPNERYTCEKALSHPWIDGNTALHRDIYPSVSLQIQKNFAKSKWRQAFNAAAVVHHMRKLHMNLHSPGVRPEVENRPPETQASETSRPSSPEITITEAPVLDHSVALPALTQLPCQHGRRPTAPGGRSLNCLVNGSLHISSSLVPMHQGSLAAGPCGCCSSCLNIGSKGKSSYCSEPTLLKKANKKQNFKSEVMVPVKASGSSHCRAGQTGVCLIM

[4] = target: Calcium/calmodulin-dependent protein kinase type II subunit delta (Homo sapiens) (UniProt Q13557)
Sequence of Calcium/calmodulin-dependent protein kinase type II subunit delta (Homo sapiens) (Q13557 whole entry): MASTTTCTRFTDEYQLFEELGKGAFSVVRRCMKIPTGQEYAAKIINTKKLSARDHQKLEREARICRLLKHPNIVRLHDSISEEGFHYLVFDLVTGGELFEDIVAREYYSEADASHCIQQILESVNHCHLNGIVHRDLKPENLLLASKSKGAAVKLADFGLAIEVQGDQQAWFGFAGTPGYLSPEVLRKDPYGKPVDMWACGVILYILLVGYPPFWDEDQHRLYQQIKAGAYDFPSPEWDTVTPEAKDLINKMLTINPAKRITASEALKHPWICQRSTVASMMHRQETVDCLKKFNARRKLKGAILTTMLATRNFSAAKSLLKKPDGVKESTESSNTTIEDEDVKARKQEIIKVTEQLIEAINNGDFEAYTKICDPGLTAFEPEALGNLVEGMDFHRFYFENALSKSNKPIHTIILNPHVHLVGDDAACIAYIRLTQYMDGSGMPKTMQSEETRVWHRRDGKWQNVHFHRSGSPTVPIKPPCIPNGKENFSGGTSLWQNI

[5] = target: Cyclin-dependent kinase 7 (Homo sapiens) (UniProt P50613)
Sequence of Cyclin-dependent kinase 7 (Homo sapiens) (P50613 whole entry): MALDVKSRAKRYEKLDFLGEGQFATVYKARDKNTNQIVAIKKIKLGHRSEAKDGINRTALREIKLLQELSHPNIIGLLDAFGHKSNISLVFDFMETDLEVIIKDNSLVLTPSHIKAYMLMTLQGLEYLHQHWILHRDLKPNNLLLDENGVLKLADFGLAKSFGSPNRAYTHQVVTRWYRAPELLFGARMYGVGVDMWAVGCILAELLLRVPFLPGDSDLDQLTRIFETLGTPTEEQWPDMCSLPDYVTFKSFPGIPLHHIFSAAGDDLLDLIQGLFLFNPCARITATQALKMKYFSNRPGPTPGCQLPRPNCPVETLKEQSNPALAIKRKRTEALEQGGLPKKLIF

[6] = target: T2, Serine/threonine-protein kinase Chk1 (Homo sapiens) (UniProt O14757)
T2 sequence (whole entry): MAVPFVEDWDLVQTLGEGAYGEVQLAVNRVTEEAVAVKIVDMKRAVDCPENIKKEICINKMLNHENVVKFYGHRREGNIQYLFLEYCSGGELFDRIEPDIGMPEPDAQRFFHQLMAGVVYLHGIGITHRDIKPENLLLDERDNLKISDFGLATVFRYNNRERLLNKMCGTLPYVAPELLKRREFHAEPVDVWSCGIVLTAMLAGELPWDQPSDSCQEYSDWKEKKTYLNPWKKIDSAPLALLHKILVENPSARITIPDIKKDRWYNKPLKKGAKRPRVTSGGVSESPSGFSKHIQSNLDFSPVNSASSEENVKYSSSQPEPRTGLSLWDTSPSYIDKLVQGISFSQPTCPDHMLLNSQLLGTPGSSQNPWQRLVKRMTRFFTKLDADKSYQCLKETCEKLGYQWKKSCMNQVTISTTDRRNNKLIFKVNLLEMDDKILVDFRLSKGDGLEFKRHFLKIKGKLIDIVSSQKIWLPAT

[7] = test system: Epidermal growth factor receptor (Homo sapiens), P00533 [T790M]
[8] = test system: Receptor-type tyrosine-protein kinase FLT3 (Homo sapiens), P36888 [R834Q]
[9] = test system: Mast/stem cell growth factor receptor Kit (Homo sapiens), P10721 [L576P]
Sequence of Mast/stem cell growth factor receptor Kit (Homo sapiens), P10721 [L576P] (P10721 whole entry L576P): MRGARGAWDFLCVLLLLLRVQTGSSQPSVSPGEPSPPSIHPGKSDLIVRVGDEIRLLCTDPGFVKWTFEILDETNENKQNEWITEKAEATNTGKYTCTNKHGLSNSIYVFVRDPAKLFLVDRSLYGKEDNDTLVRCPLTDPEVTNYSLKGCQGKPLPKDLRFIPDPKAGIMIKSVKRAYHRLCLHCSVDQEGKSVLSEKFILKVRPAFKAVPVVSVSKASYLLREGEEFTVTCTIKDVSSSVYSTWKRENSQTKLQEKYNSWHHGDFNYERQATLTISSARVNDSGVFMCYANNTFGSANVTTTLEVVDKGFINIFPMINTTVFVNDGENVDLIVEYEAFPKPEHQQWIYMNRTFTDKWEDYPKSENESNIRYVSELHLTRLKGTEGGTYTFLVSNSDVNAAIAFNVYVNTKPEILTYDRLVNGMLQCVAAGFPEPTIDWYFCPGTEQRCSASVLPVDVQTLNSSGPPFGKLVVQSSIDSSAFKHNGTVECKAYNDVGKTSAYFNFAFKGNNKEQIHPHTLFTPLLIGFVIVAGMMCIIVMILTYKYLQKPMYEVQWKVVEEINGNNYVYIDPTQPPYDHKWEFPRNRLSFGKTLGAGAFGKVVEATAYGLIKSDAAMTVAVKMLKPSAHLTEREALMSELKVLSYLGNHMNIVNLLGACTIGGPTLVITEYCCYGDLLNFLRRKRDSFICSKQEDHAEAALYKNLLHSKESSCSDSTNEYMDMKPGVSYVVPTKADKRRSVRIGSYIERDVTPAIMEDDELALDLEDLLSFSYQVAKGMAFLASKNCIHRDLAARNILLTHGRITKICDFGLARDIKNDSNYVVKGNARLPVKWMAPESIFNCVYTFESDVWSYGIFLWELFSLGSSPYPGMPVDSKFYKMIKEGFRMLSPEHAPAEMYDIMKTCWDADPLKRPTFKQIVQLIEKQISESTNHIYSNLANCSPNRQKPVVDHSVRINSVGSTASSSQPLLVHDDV

[10] = target: Myosin-IIIb (Homo sapiens) (UniProt Q8WXR4)
[11] = target: Membrane-associated tyrosine- and threonine-specific cdc2-inhibitory kinase (Homo sapiens) (UniProt Q99640)
Sequence of Membrane-associated tyrosine- and threonine-specific cdc2-inhibitory kinase (Homo sapiens) (Q99640 whole entry): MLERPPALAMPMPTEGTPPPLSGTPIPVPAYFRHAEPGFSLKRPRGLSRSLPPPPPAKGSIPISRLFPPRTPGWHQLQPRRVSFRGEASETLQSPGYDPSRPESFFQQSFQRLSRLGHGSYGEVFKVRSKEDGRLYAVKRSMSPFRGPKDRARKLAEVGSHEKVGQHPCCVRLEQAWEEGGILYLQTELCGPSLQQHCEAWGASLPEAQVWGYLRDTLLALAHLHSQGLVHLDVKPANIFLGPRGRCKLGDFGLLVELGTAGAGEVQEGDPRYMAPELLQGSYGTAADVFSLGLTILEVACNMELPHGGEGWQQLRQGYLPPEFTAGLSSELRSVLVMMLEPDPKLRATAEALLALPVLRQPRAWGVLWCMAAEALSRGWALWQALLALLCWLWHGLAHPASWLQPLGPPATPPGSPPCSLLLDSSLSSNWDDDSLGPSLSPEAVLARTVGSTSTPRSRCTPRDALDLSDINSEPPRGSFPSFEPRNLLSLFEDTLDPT

[12] = target: Serine/threonine-protein kinase PLK4 (Homo sapiens) (UniProt O00444)
[13] = target: RAF proto-oncogene serine/threonine-protein kinase (Homo sapiens) (UniProt P04049)
Sequence of RAF proto-oncogene serine/threonine-protein kinase (Homo sapiens) (P04049 whole entry): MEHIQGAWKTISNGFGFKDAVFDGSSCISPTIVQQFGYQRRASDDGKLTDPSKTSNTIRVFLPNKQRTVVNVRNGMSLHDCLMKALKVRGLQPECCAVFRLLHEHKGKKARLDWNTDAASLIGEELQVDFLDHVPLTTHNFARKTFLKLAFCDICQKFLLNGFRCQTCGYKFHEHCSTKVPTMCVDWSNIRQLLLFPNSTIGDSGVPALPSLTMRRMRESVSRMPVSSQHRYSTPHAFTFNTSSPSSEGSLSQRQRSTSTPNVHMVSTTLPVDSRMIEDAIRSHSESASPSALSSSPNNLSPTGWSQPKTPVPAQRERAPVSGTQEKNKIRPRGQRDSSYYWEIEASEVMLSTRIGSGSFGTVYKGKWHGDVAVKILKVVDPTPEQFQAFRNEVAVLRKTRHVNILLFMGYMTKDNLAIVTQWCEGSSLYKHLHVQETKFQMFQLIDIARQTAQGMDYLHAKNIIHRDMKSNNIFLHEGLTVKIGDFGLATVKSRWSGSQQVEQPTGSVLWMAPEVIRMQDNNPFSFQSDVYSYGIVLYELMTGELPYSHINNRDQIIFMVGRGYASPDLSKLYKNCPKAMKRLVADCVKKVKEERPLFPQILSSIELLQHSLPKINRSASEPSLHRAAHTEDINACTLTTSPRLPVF

[14] = target: Dual serine/threonine and tyrosine protein kinase (Homo sapiens) (UniProt Q6XUX3)
[15] = target: Serine/threonine-protein kinase SBK1 (Homo sapiens) (UniProt Q52WX2)
[16] = target: Serine/threonine-protein kinase WNK2 (Homo sapiens) (UniProt Q9Y3S1)
[17] = target: 5-hydroxytryptamine receptor 1D (Homo sapiens) (UniProt P28221); conditions: Compound concentration 10.0 uM
Sequence of 5-hydroxytryptamine receptor 1D (Homo sapiens) (P28221 whole entry): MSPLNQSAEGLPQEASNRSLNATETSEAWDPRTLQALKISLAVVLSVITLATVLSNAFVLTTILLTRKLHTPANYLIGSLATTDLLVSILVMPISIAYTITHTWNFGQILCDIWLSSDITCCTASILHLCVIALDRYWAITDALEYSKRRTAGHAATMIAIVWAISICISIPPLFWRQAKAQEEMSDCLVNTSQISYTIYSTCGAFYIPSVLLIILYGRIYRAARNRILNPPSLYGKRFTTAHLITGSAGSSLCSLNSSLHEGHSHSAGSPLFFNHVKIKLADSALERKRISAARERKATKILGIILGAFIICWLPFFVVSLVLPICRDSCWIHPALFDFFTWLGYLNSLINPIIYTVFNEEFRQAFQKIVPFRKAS

[18] = target: Sodium-dependent serotonin transporter (Homo sapiens) (UniProt P31645); conditions: Compound concentration 10.0 uM
Sequence of Sodium-dependent serotonin transporter (Homo sapiens) (P31645 whole entry, looked up): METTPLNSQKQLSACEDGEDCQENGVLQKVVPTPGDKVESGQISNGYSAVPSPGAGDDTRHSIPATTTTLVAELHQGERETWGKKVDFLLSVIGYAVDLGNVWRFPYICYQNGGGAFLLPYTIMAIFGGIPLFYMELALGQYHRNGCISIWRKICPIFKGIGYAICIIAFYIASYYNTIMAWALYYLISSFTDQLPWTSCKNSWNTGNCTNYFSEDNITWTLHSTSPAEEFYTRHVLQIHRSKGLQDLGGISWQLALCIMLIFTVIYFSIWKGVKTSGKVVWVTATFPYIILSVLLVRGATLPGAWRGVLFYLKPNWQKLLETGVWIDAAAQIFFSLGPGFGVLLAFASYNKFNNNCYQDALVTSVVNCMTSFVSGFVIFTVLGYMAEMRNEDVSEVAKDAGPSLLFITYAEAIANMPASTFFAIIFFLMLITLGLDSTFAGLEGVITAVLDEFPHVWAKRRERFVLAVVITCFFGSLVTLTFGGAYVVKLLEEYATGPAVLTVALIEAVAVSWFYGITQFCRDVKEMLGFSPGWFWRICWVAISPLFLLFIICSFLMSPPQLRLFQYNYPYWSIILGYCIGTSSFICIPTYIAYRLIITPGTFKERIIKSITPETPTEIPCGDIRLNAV

[19] = target: Delta-type opioid receptor (Homo sapiens) (UniProt P41143); conditions: Compound concentration 10.0 uM
Sequence of Delta-type opioid receptor (Homo sapiens) (P41143 whole entry): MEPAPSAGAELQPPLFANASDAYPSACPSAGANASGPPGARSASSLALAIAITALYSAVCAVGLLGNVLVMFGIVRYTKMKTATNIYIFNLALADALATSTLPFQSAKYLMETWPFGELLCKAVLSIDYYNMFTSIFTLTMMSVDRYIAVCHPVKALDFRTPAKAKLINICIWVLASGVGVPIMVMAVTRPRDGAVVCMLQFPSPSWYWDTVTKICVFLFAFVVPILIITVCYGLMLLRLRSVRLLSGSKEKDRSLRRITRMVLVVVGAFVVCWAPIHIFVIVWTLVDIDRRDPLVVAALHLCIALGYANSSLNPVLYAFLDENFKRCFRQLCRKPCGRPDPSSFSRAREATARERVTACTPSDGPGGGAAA

[20] = Compound concentration 1000.0 nM
[21] = Compound concentration 100.0 nM

C[C@@H]1CN(c2cc(-c3nn(C)c4ccc(OC5(C)CC5)cc34)ncn2)C[C@H](C)O1 [MLi-2-NC]
inactive: residual activity [1, 20] 96% | residual activity [2, 20] 85% | residual activity [3, 20] 82% | residual activity [4, 20] 88% | residual activity [5, 20] 100% | residual activity [6, 20] 57% | residual activity [7, 20] 100% | residual activity [8, 20] 90% | residual activity [9, 20] 100% | residual activity [10, 20] 100% | residual activity [11, 20] 100% | residual activity [12, 20] 65% | residual activity [13, 20] 100% | residual activity [14, 20] 67% | residual activity [15, 20] 62% | residual activity [16, 20] 63% | inhibition [17] 4.11% | inhibition [18] -3.49% | inhibition [19] 23.3%

C[C@@H]1CN(c2cc(-c3n[nH]c4ccc(OC5(C)CC5)cc34)ncn2)C[C@H](C)O1 [MLi-2]
inactive: residual activity [1, 21] 90% | residual activity [2, 21] 100% | residual activity [3, 21] 91% | residual activity [4, 21] 100% | residual activity [5, 21] 56% | residual activity [6, 21] 90% | residual activity [7, 21] 100% | residual activity [8, 21] 78% | residual activity [9, 21] 100% | residual activity [10, 21] 89% | residual activity [11, 21] 96% | residual activity [12, 21] 71% | residual activity [13, 21] 100% | residual activity [14, 21] 77% | residual activity [15, 21] 88% | residual activity [16, 21] 84% | inhibition [17] -7.94% | inhibition [18] -2.29% | inhibition [19] 6.66%

From ChEMBL document CHEMBL4507291 (2021)
